Laboratory results published in the NIST ThermoML archive (doi:10.1021/je800925v).

Assay: xn = mol fraction of the nth substance listed
Settings: Liquid

CCCCCC [hexane] + CCO
Settings | mass density [kg/m3] | viscosity [mPa·s]
285.65 K, x2 = 0.6 | 721.5 | 0.629
285.65 K, x2 = 0.701 | 733 | 0.7257
285.65 K, x2 = 0.793 | 749.5 | 0.8754
285.65 K, x2 = 0.901 | 770.4 | 1.085
288.15 K, x2 = 0.101 | 675.2 | 0.3215
288.15 K, x2 = 0.198 | 680.9 | 0.346
288.15 K, x2 = 0.302 | 688.3 | 0.383
288.15 K, x2 = 0.401 | 698.1 | 0.4239
288.15 K, x2 = 0.496 | 707.9 | 0.5159
288.15 K, x2 = 0.6 | 719.3 | 0.6052
288.15 K, x2 = 0.701 | 730.8 | 0.6967
288.15 K, x2 = 0.793 | 747.3 | 0.8384
288.15 K, x2 = 0.901 | 768.2 | 1.036
290.65 K, x2 = 0.101 | 672.8 | 0.3147
290.65 K, x2 = 0.198 | 678.6 | 0.3366
290.65 K, x2 = 0.302 | 686 | 0.3728
290.65 K, x2 = 0.401 | 695.8 | 0.433
290.65 K, x2 = 0.496 | 705.5 | 0.498
290.65 K, x2 = 0.6 | 717 | 0.5822
290.65 K, x2 = 0.701 | 728.5 | 0.6691
290.65 K, x2 = 0.793 | 745.1 | 0.8031
290.65 K, x2 = 0.901 | 766 | 0.9898
293.15 K, x2 = 0 | 659.8 | 0.2979
293.15 K, x2 = 0.101 | 670.5 | 0.308
293.15 K, x2 = 0.198 | 676.2 | 0.3264
293.15 K, x2 = 0.302 | 683.7 | 0.3597
293.15 K, x2 = 0.401 | 693.5 | 0.3995
293.15 K, x2 = 0.496 | 703.2 | 0.4493
293.15 K, x2 = 0.6 | 714.7 | 0.5606
293.15 K, x2 = 0.701 | 726.2 | 0.643
293.15 K, x2 = 0.793 | 742.8 | 0.7696
293.15 K, x2 = 0.901 | 763.9 | 0.9463
295.65 K, x2 = 0.101 | 668.2 | 0.3016
295.65 K, x2 = 0.198 | 673.9 | 0.3161
295.65 K, x2 = 0.302 | 681.4 | 0.3499
295.65 K, x2 = 0.401 | 691.1 | 0.3949
295.65 K, x2 = 0.496 | 700.9 | 0.4437
295.65 K, x2 = 0.6 | 712.4 | 0.5401
295.65 K, x2 = 0.701 | 724 | 0.6182
295.65 K, x2 = 0.793 | 740.6 | 0.7377
295.65 K, x2 = 0.901 | 761.7 | 0.9052
298.15 K, x2 = 0 | 655.3 | 0.2865
298.15 K, x2 = 0.101 | 665.9 | 0.2953
298.15 K, x2 = 0.198 | 671.5 | 0.3049
298.15 K, x2 = 0.302 | 679 | 0.3398
298.15 K, x2 = 0.401 | 688.8 | 0.3755
298.15 K, x2 = 0.496 | – | 0.4288
298.15 K, x2 = 0.6 | 710.1 | 0.5021
298.15 K, x2 = 0.701 | 721.7 | 0.5944
298.15 K, x2 = 0.793 | 738.3 | 0.7071
298.15 K, x2 = 0.901 | 759.5 | 0.8663
